Paper PMC6268909 (Molecules, 2012)
Values after ≈ are worked out from the molar mass of the structure shown. Counter-ions that a name gives are not always drawn. Like-named read-outs stand apart in the source and are kept apart here.

Key:
[1] = system: Xanthomonas vesicatoria ATCC 11633; assay: microbe, parasite or virus in culture; type: cell-based; conditions: ATCC11633, 24 h, read-out: IC50, antimicrobial activity, X. ves.
[2] = system: Cladosporium cladosporioides; set-up: method as in PMID 20158153; conditions: compound from endophytic Penicillium sp.; cited from earlier work
C. sphaerospermum = system: C. sphaerospermum; set-up: method as in PMID 20158153; conditions: compound from endophytic Penicillium sp.; cited from earlier work
Staphylococcus aureus = conditions: cited from earlier work
[3] = system: Pseudomonas lachrymans ATCC 11921; assay: microbe, parasite or virus in culture; type: cell-based; conditions: ATCC11921, 24 h, read-out: IC50, antimicrobial activity, P. lach.
[4] = system: methicillin-resistant S. aureus; conditions: cited from earlier work
[5] = system: Bacillus subtilis ATCC 11562; assay: microbe, parasite or virus in culture; type: cell-based; conditions: ATCC11562, 24 h, read-out: IC50, antimicrobial activity, B. sub.
[6] = biological target: T1, acetylcholinesterase (AChE) (Homo sapiens, UniProt P22303); assay: biochemical
T1 construct: purchased Sigma-Aldrich (St. Louis, MO, USA)

Microbotryum violacerum = system: Microbotryum violacerum; set-up: method as in earlier work; conditions: compound from endophytic fungus of Meliotus dentatus; cited from earlier work
Magnaporthe oryzae P131 = assay: microbe, parasite or virus in culture; type: cell-based; conditions: Pyricularia oryzae, read-out: IC50, antimicrobial activity, M. or.
[7] = system: Agrobacterium tumefaciens ATCC 11158; assay: microbe, parasite or virus in culture; type: cell-based; conditions: ATCC11158, 24 h, read-out: IC50, antimicrobial activity, A. tum.
Bacillus megaterium = system: Bacillus megaterium; set-up: method as in earlier work; conditions: compound from endophytic fungus of Meliotus dentatus; cited from earlier work
[8] = system: Ralstonia solanacearum ATCC 11696; assay: microbe, parasite or virus in culture; type: cell-based; conditions: ATCC11696, 24 h, read-out: IC50, antimicrobial activity, R. sol.
[9] = system: various cultured mammalian cells; conditions: cited from earlier work
[10] = system: human colon carcinoma cells; conditions: cited from earlier work
[11] = biological target: acetycholinesterase (AChE); set-up: method as in PMID 15787237; conditions: previously reported; cited from earlier work
Alternaria alternata = system: Alternaria alternata; set-up: method as in PMID 15787237; conditions: cited from earlier work

T1 sequence (P22303 32-614, species assumed): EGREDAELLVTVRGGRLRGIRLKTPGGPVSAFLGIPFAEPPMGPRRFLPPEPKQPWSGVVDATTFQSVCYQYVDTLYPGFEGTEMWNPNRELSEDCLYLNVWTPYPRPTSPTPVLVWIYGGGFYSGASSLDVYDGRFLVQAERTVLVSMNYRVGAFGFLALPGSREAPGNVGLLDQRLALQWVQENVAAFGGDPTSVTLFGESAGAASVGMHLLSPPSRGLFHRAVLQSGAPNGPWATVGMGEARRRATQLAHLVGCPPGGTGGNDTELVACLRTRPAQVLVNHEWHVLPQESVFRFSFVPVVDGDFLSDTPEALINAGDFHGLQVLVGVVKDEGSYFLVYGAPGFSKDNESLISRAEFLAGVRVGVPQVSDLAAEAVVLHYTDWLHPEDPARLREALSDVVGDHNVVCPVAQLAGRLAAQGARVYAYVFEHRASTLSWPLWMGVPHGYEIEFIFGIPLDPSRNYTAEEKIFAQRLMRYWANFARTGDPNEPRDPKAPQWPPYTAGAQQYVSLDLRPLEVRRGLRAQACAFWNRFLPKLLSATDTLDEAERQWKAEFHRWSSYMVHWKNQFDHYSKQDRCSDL

Row | Structure (SMILES) | IC50 [1] [µg/mL] | antifungal activity at concentration [2] [µg/mL] | antifungal activity at concentration (C. sphaerospermum) [µg/mL] | MIC (Staphylococcus aureus) [µg/mL] | IC50 [3] [µg/mL] | MIC [4] [µg/mL] | IC50 [5] [µg/mL] | IC50 [6] [µM] | antifungal activity (Microbotryum violacerum) | IC50 (Magnaporthe oryzae P131; P131, 7 h) [µg/mL] | IC50 [7] [µg/mL] | antibacterial activity (Bacillus megaterium) | IC50 [8] [µg/mL] | DNA strand breaks, micronuclei and gene mutations [9] | mitochondrial apoptosis [10] | IC50 (Magnaporthe oryzae P131; P131, 7 h at 25 °C) [µg/mL] | IC50, acetycholinesterase (AChE) inhibitory activity [11] [µg/mL] | MIC (Alternaria alternata) [µg/mL]
1 | CC1OC(=O)c2c(O)cccc2C1O (centres unmarked) [4,8-dihydroxy-3-methylbenzopyran-1-one] | 17.8 (≈ 91.7 µM) | 5.00 | 10.0 | 8 (≈ 41.2 µM) | 16.2 (≈ 83.3 µM) | 8 (≈ 41.2 µM) | 19.2 (≈ 99 µM) | 598 | antifungal activity | 113 (≈ 584 µM) | 18.2 (≈ 93.8 µM) | strong antibacterial activity | 16.2 (≈ 83.6 µM) | – | – | – | – | –
2 | COc1cc(O)c2c(=O)oc3cc(O)cc(C)c3c2c1 [Alternariol 9-methyl ether (3), 3,7-dihydroxy-9-methoxy-1-methyl-6H-dibenzo[b,d]pyran-6-one] | 30.1 (≈ 110 µM) | – | – | – | 27.1 (≈ 99.5 µM) | – | 34.3 (≈ 126 µM) | 498 | – | – | 28.8 (≈ 106 µM) | – | 29.2 (≈ 107 µM) | induce DNA strand breaks, micronuclei and gene mutations | induce mitochondrial apoptosis | 123 (≈ 452 µM) | – | –
3 | COC1=CC2(C)OC(=O)c3c(O)cc(OC)cc3C2=C(O)C1=O (centres unmarked) [Botrallin (4), 1,7-dihydroxy-3,9-dimethoxy-4a-methyl-6H-dibenzo[b,d]pyran-2,6 (4aH)-dione] | 86.3 (≈ 271 µM) | – | – | – | 92.2 (≈ 290 µM) | – | 98.5 (≈ 309 µM) | 326 | – | – | 87.5 (≈ 275 µM) | – | 85.5 (≈ 269 µM) | – | – | 107 (≈ 337 µM) | 6.1 (≈ 19.2 µM) | 62.5 (≈ 196 µM)
4 | COc1cc(O)c2c(=O)oc3cc(O)c(Cl)c(C)c3c2c1 [Palmariol B (1), 2-chloro-3,7-dihydroxy-9-methoxy-1-methyl-6H-dibenzo[b,d]pyran-6-one] | 28.1 (≈ 91.7 µM) | – | – | – | 16.7 (≈ 54.6 µM) | – | 27.7 (≈ 90.2 µM) | 376 | – | – | 19.4 (≈ 63.1 µM) | – | 17.5 (≈ 57.1 µM) | – | – | 119 (≈ 387 µM) | – | –
5 | COC(=O)Nc1nc2ccccc2[nH]1 [carbendazim, reference compound] | – | – | – | – | – | – | – | – | – | 13 (≈ 68 µM) | – | – | – | – | – | – | – | –
6 | [H]/N=C(/N)N[C@H]1[C@H](O)[C@@H](O)[C@H](O[C@@H]2O[C@@H](C)[C@](O)(C=O)[C@H]2O[C@@H]2O[C@@H](CO)[C@H](O)[C@@H](O)[C@@H]2NC)[C@@H](N/C(N)=N\[H])[C@@H]1O [streptomycin sulfate, reference compound] | 6.79 | – | – | – | 8.34 | – | 8.35 | – | – | – | 6.34 | – | 7.19 | – | – | – | – | –
